Measured values: patent US20250140406A1, “CLASSIFYING TUMORS AND PREDICTING RESPONSIVENESS” (Oncocyte Corporation, priority 2022, published 2025)
Square brackets hold non-standard residues; d marks the D form. Peptide text beside a SMILES is read from it.

Key:
[1] = test system: cancer cell lines, DetermaIO classes; assay: Association of PRISM compound sensitivity with DetermaIO (DTIO) cell line classes; format: cell-based
[2] = test system: cancer cell lines classified IM, MSL, M; assay: PRISM screen compound sensitivity correlated with IM, MSL and M subtype of cell lines (101 gene signature); format: cell-based; settings: for IM Corr test: correlation of PRISM compound sensitivity with IM subtype correlation; for M Corr test: correlation of PRISM compound sensitivity with M subtype correlation; for MSL Corr test: correlation of PRISM compound sensitivity with MSL subtype correlation; for TNBCType test: test data set
[3] = correlation of PRISM compound sensitivity with DTIO; test cell set
[4] = correlation of PRISM compound sensitivity with DTIO; training cell set
[5] = correlation of PRISM compound sensitivity with DTIO (DetermaIO); test cell set (188 cell lines)
[6] = correlation of PRISM compound sensitivity with DTIO (DetermaIO); training cell set (371 cell lines)
[7] = correlation of compound sensitivity with DTIO; test set
[8] = correlation of compound sensitivity with DTIO; training set
[9] = subtype (IM, MSL or M) assigned to the compound by negative correlation of PRISM sensitivity with subtype, training cell set (371 cell lines), 101 gene signature
[10] = correlation of PRISM compound sensitivity with DTIO; test cell set (188 cell lines)
[11] = correlation of PRISM compound sensitivity with DTIO; training cell set (371 cell lines)
[12] = association of compound sensitivity with DetermaIO classes; test data set
[13] = association of compound sensitivity with DetermaIO classes; training data set
[14] = classification of association of compound sensitivity with IM, MSL and M cell line classes, training data set
[15] = classification of association of compound sensitivity with IM, MSL and M cell line classes

| Structure (SMILES) | DTIO Corr test [1, 3] | DTIO Corr train [1, 4] | IM Corr test ([2]; test cell set (188 cell lines)) | M Corr test ([2]; test cell set (188 cell lines)) | MSL Corr test ([2]; test cell set (188 cell lines)) | DTIO Corr test [1, 12] | DTIO Corr train [1, 13] | further results |
| --- | --- | --- | --- | --- | --- | --- | --- | --- |
| Cc1c(NC(=O)OC[C@@H]2COCCN2)cn2ncnc(Nc3ccc4c(cnn4Cc4cccc(F)c4)c3)c12 [BMS-599626] | −0.02871 | −0.07697 | −0.1901 | 0.2776 | 0.4191 |  |  | DTIO Corr test ([1]; correlation of compound sensitivity with DetermaIO (DTIO), test set): −0.02871; DTIO Corr train ([1]; correlation of compound sensitivity with DetermaIO (DTIO), training set): −0.07697 |
| COc1cccc(Nc2ncnn3ccc(CN4CC[C@@H](N)[C@H](O)C4)c23)c1 [BMS-690514] |  |  | −0.1648 | 0.2486 | 0.3466 |  |  | DTIO Corr test [1, 5]: 0.01346; DTIO Corr train [1, 6]: −0.1666; DTIO Corr test ([1]; correlation of compound sensitivity with DTIO, test set): 0.01346; DTIO Corr train ([1]; correlation of compound sensitivity with DTIO, training set): −0.1666; DTIO Corr test [1, 7]: 0.01346; DTIO Corr train [1, 8]: −0.1666 |
| COc1cc(C(=O)c2c(C)oc3c(O)c(OC)ccc23)cc(OC)c1OC [BNC105] | −0.1135 | −0.1119 |  |  |  |  |  | IM Corr test ([2]; test cell set): −0.07446; M Corr test ([2]; test cell set): −0.08585; MSL Corr test ([2]; test cell set): −0.09188; TNBCType train ([2]; subtype (IM, MSL or M) with which PRISM compound sensitivity is negatively correlated, training cell set, 101 gene signature): MSL |
| O=C1/C(=C/c2ccccc2)C[C@@]2(O)[C@H]3Cc4ccc(O)c5c4[C@@]2(CCN3CC2CC2)[C@H]1O5 [BNTX] | −0.1085 | −0.1416 | −0.1371 | 0.09323 | 0.1062 |  |  |  |
| CC(C)C[C@@H]1NC(=O)[C@@H](C(C)C)NC(=O)[C@@H]2CCCN2C(=O)[C@@H](CC(=O)O)NC(=O)[C@@H](Cc2c[nH]c3ccccc23)NC1=O [BQ-123] (cyclo(L[dW][dD]P[dV])) | 0.07641 | 0.04394 | 0.0449 | −0.1374 | −0.1421 |  |  | TNBCType train ([2]; subtype (IM, MSL or M) with which compound sensitivity is negatively correlated, training cell set (371 cell lines), 101 gene signature): MSL |
| O=C(Nc1cccc(Nc2ncc(Br)c(NCCc3cnc[nH]3)n2)c1)N1CCCC1 [BX-912] | 0.03523 | 0.04083 |  |  |  |  |  | IM Corr test ([2]; test cell set): 0.1542; M Corr test ([2]; test cell set): −0.2367; MSL Corr test ([2]; test cell set): −0.03732 |
| Cc1ccc(-n2sc(=O)n(Cc3ccc(F)cc3)c2=O)cc1 [CCG-50014] | −0.03813 | 0.0404 | 0.03964 | −0.1198 | −0.2063 |  |  |  |
| Nc1nc(-c2ccc(Cl)c(Cl)c2)c(-c2ccncc2)s1 [CGH2466] |  |  | −0.07415 | 0.03776 | 0.04331 |  |  | DTIO Corr test [1, 5]: −0.01803; DTIO Corr train [1, 6]: −0.09319 |
| CCCCCCCCCCC(C)(C)C(=O)Nc1c(OC)cc(OC)cc1OC [CI-976] |  |  | 0.06082 | −0.082 | −0.03363 |  |  | DTIO Corr test [1, 5]: 0.03532; DTIO Corr train [1, 6]: 0.09198; TNBCType train [2, 9]: MSL |
| C=CC(=O)Nc1cccc(Nc2nc(Nc3ccc(Oc4ccnc(C(=O)NC)c4)cc3)ncc2F)c1 [CNX-774] | 0.1389 | 0.07802 |  |  |  |  |  | IM Corr test ([2]; test cell set): 0.09358; M Corr test ([2]; test cell set): −0.09506; MSL Corr test ([2]; test cell set): 0.02463 |
| O=C(O)C1CN(CCCP(=O)(O)O)CCN1 (stereo not shown) [CPP] |  |  | −0.04467 | −0.01154 | −0.2411 |  |  | DTIO Corr test [1, 5]: −0.04842; DTIO Corr train [1, 6]: −0.04563; TNBCType train [2, 9]: MSL |
| CCn1c(=O)[nH]c2cc(Cl)c(Cl)cc21 [DCEBIO] |  |  | 0.1207 | −0.1198 | −0.1352 |  |  | DTIO Corr test [1, 5]: 0.121; DTIO Corr train [1, 6]: 0.1577 |
| CC(=O)Nc1ccc(Cc2ccc(NC(C)=O)cc2)cc1 [FH1] | −0.06073 | −0.08253 |  |  |  |  |  | IM Corr test ([2]; test cell set): −0.11; M Corr test ([2]; test cell set): 0.01237; MSL Corr test ([2]; test cell set): −0.1426 |
| NC(=O)c1cccc(-c2cc(Nc3ccc(OC(F)(F)F)cc3)ncn2)c1 [GNF-2] |  |  | −0.03304 | −0.07177 | −0.05938 |  |  | DTIO Corr test [1, 10]: −0.02831; DTIO Corr train [1, 11]: −0.02935 |
| CCCCC#Cc1nc(NC)c2ncn([C@@H]3O[C@H](CO)[C@@H](O)[C@H]3O)c2n1 [HEMADO] | −0.09381 | −0.08651 |  |  |  |  |  | IM Corr test ([2]; test cell set): −0.0662; M Corr test ([2]; test cell set): 0.05737; MSL Corr test ([2]; test cell set): 0.1849 |
| O=C1[C@H](Cc2ccc(O)cc2)N2C(=O)CCN(C(=O)NCc3ccccc3)[C@H]2CN1Cc1cccc2ccccc12 [ICG-001] |  |  | 0.1415 | −0.2223 | 0.01929 |  |  | DTIO Corr test [1, 10]: 0.1635; DTIO Corr train [1, 11]: 0.1783; DTIO Corr test [1, 7]: 0.1635; DTIO Corr train [1, 8]: 0.1783 |
| O=C(O)CCC/C=C\C[C@@H]1CO[C@H](C(F)(F)F)O[C@@H]1c1ccccc1O [ICI-185,282] | −0.02205 | −0.09302 |  |  |  |  |  | IM Corr test ([2]; test cell set): −0.05673; M Corr test ([2]; test cell set): 0.07129; MSL Corr test ([2]; test cell set): 0.1418 |

| Structure (SMILES) | DTIO Corr test [1, 3] | DTIO Corr train [1, 4] | IM Corr test ([2]; test cell set (188 cell lines)) | M Corr test ([2]; test cell set (188 cell lines)) | MSL Corr test ([2]; test cell set (188 cell lines)) | DTIO Corr test [1, 12] | DTIO Corr train [1, 13] | further results |
| --- | --- | --- | --- | --- | --- | --- | --- | --- |
| NC(=O)CCCCn1ccc(NC(N)=NCC(F)(F)F)n1 [ICI-162846] | −0.05711 | −0.09255 | −0.1537 | 0.1647 | 0.0517 |  |  |  |
| O=C(O)CNC(=O)c1c(O)c2ccccc2n(Cc2ccccc2)c1=O [IOX2] |  |  | −0.04037 | 0.09066 | 0.01906 |  |  | DTIO Corr test [1, 10]: −0.06501; DTIO Corr train [1, 11]: −0.0409 |
| Cc1cc(C)cc(C(=O)N(C)[C@H](Cc2ccc(-c3ccccc3)cc2)C(=O)N[C@@H](Cc2c[nH]c3ccccc23)C(=O)O)c1 [IRL-2500] |  |  | −0.01191 | 0.007861 | −0.1214 |  |  | DTIO Corr test [1, 10]: 0.02691; DTIO Corr train [1, 11]: −0.06473 |
| O=C(Nc1ccc(C(F)(F)F)cn1)N1CCN(c2ncccc2C(F)(F)F)CC1 [JNJ-17203212] | −0.00666 | −0.1037 |  |  |  |  |  | IM Corr test ([2]; test cell set): −0.03139; M Corr test ([2]; test cell set): 0.03655; MSL Corr test ([2]; test cell set): 0.142 |
| CCCCCOc1c(OC)ccc2cc(C(=O)NCc3ccc4c(c3)OCO4)c(=O)[nH]c12 [JTE-907] |  |  | −0.05167 | 0.08725 | −0.01924 |  |  | DTIO Corr test [1, 5]: −0.04389; DTIO Corr train [1, 6]: −0.131 |
| Clc1ccc(C2(c3ccc(-c4cn[nH]c4)cc3)CCNCC2)cc1 [K12040459] |  |  |  |  |  | 0.003574 | 0.04812 | TNBCType train [2, 14]: MSL |
| C[C@@H]1NC(C)(C)CO[C@@]1(O)c1cccc(Cl)c1 [K13394247] |  |  |  |  |  | −0.04236 | 0.0598 | TNBCType test [2, 15]: MSL |
| C[C@@H](Oc1ccc2[nH]nc(/C=C/c3cnn(CCO)c3)c2c1)c1c(Cl)cncc1Cl [K17203476] |  |  |  |  |  | −0.0838 | −0.1449 | TNBCType test [2, 15]: MSL |
| O=C(NCc1cccc(O)c1)Nc1nc(-c2ccncc2)cs1 [K19333160] |  |  |  |  |  | 0.08122 | 0.04633 | TNBCType test [2, 15]: MSL; TNBCType train [2, 14]: MSL |
| COc1cc(Nc2ncc(F)c(Nc3ccc4c(n3)NC(=O)C(C)(C)O4)n2)cc(OC)c1OC [K20285085] |  |  |  |  |  | −0.04153 | −0.1076 | TNBCType test [2, 15]: MSL; TNBCType train [2, 14]: MSL |
| COc1cc(-c2ccc(=O)[nH]n2)ccc1OC(F)F [K37561857] |  |  |  |  |  | 0.1699 | 0.1782 | TNBCType test [2, 15]: MSL |
| COc1cc2nccc(Oc3ccc(NC(=O)NC4CC4)c(Cl)c3)c2cc1C(N)=O [K39974922] |  |  |  |  |  | 0.002695 | −0.03256 | TNBCType train [2, 14]: MSL |
| Nc1cc(F)ccc1NC(=O)/C=C/c1cnn(C/C=C/c2ccccc2)c1 [K61688984] |  |  |  |  |  | −0.02541 | 0.06912 | TNBCType train [2, 14]: MSL |
| O=C(O)C[C@H](O)C[C@H](O)/C=C/c1c(C2CC2)nc2ccccc2c1-c1ccc(F)cc1 [K75958547] |  |  |  |  |  | −0.0837 | −0.04476 | TNBCType train [2, 14]: MSL |
| COc1cc(OC)cc(N(CCNC(C)C)c2ccc3ncc(-c4cnn(C)c4)nc3c2)c1 [K84868168] |  |  |  |  |  | 0.006092 | −0.0744 | TNBCType train [2, 14]: MSL |
| CC[C@H](C)C(=O)O[C@H]1CCC=C2C=C[C@H](C)[C@H](CC[C@@H]3C[C@@H](O)CC(=O)O3)[C@H]21 [K94441233] |  |  |  |  |  | −0.09323 | −0.00119 | TNBCType test [2, 15]: MSL; TNBCType train [2, 14]: MSL |
| COc1cc2nccc(Oc3ccc(NC(=O)Nc4ccc(F)cc4F)c(F)c3)c2cc1OC [KI-8751] | 0.03732 | 0.02512 |  |  |  |  |  | IM Corr test ([2]; test cell set): 0.1039; M Corr test ([2]; test cell set): −0.09761; MSL Corr test ([2]; test cell set): 0.006054 |
